Source: US4401660A, “Ester derivatives of 5-O-mycaminosyl tylonolide and method of using same” (Eli Lilly and Company, priority 1981, dated 1983)

Tests used:
[1] = system: Staphylococcus epidermidis EPI2; experiment: MIC, standard agar-dilution assay (Table II); assay type: cell-based; design: unit not given here
Description: (§1) The MIC's in Table II were determined by standard agar-dilution assays. The MIC's in Table III were obtained using a conventional broth-dilution microtiter test.

[2] = system: Haemophilus influenzae Holt; experiment: MIC, standard agar-dilution assay (Table II); assay type: cell-based; design: unit not given here; details: ampicillin-sensitive strain
Description: as §1

[3] = system: Staphylococcus aureus X400; experiment: MIC, standard agar-dilution assay (Table II); assay type: cell-based; design: unit not given here; details: Staphylococcus aureus X400, methicillin-resistant strain
Description: as §1

[4] = system: Streptococcus Group D 9960; experiment: MIC, standard agar-dilution assay (Table II); assay type: cell-based; design: unit not given here
Description: as §1

[5] = system: Staphylococcus aureus V41; experiment: MIC, standard agar-dilution assay (Table II); assay type: cell-based; design: unit not given here; details: Staphylococcus aureus V41, penicillin-resistant strain
Description: as §1

[6] = system: Streptococcus pyogenes C203; experiment: MIC, standard agar-dilution assay (Table II); assay type: cell-based; design: unit not given here
Description: as §1

[7] = system: Staphylococcus aureus S13E; experiment: MIC, standard agar-dilution assay (Table II); assay type: cell-based; design: unit not given here
Description: as §1

[8] = system: Staphylococcus aureus X1.1; experiment: MIC, standard agar-dilution assay (Table II); assay type: cell-based; design: unit not given here
Description: as §1

[9] = system: Streptococcus Group D X66; experiment: MIC, standard agar-dilution assay (Table II); assay type: cell-based; design: unit not given here
Description: as §1

[10] = system: Staphylococcus epidermidis EPI1; experiment: MIC, standard agar-dilution assay (Table II); assay type: cell-based; design: unit not given here
Description: as §1

[11] = system: Haemophilus influenzae R252; experiment: MIC, standard agar-dilution assay (Table II); assay type: cell-based; design: unit not given here; details: Haemophilus influenzae R252, ampicillin-resistant strain
Description: as §1

[12] = system: Streptococcus pneumoniae Park I; experiment: MIC, standard agar-dilution assay (Table II); assay type: cell-based; design: unit not given here
Description: as §1

Pasteurella multocida = experiment: Treatment of Pasteurella infections in chicks (Table V); assay type: in vivo, one-day-old chicks; details: Pasteurella multocida, sc, 4 h; 30 mg/kg by subcutaneous injection one and four hours post challenge; read-out: Deaths in Treated Chicks/Number Treated (converted)
Description: Certain OMT ester derivatives are active in vivo against Pasteurella infections. Table V summarizes the results of tests in which the ester derivatives were administered to one-day-old chicks at a dosage level of 30 mg/kg by subcutaneous injection one and four hours post challenge of the chicks with Pasteurella multocida (0.1 ml of a 10^-3 dilution of a 20-hour tryptose broth culture of avian P. multocida given subcutaneously). All nonmedicated infected chicks (ten in each control group) died within 24 hours of Pasteurella challenge.

[13] = system: Pasteurella multocida 17E; experiment: MIC, broth-dilution microtiter test (Table III); assay type: cell-based; design: unit not given here; details: bovine isolate
Description: as §1

[14] = system: Pasteurella multocida 22A; experiment: MIC, broth-dilution microtiter test (Table III); assay type: cell-based; design: unit not given here
Description: as §1

Mycoplasma hyorhinis = experiment: MIC, broth-dilution microtiter test (Table III); assay type: cell-based; design: unit not given here
Description: as §1

Mycoplasma gallisepticum = experiment: MIC, broth-dilution microtiter test (Table III); assay type: cell-based; design: unit not given here
Description: as §1

Staphylococcus aureus = experiment: MIC, broth-dilution microtiter test (Table III); assay type: cell-based; design: unit not given here
Description: as §1

[15] = system: Pasteurella haemolytica 23C; experiment: MIC, broth-dilution microtiter test (Table III); assay type: cell-based; design: unit not given here
Description: as §1

[16] = system: Pasteurella haemolytica 41D; experiment: MIC, broth-dilution microtiter test (Table III); assay type: cell-based; design: unit not given here
Description: as §1

Streptococcus sp. 80 = experiment: MIC, broth-dilution microtiter test (Table III); assay type: cell-based; design: unit not given here
Description: as §1

[17] = system: Pasteurella haemolytica 22C; experiment: MIC, broth-dilution microtiter test (Table III); assay type: cell-based; design: unit not given here
Description: as §1

[18] = system: Pasteurella multocida 60A; experiment: MIC, broth-dilution microtiter test (Table III); assay type: cell-based; design: unit not given here; details: avian isolate
Description: as §1

[19] = system: Pasteurella multocida 40G; experiment: MIC, broth-dilution microtiter test (Table III); assay type: cell-based; design: unit not given here
Description: as §1

[20] = system: Pasteurella multocida 68C; experiment: MIC, broth-dilution microtiter test (Table III); assay type: cell-based; design: unit not given here
Description: as §1

Mycoplasma synoviae = experiment: MIC, broth-dilution microtiter test (Table III); assay type: cell-based; design: unit not given here
Description: as §1

Row | Structure (SMILES) | minimal inhibitory concentration (MIC) [1] | minimal inhibitory concentration (MIC) [3] | minimal inhibitory concentration (MIC) [4] | minimal inhibitory concentration (MIC) [5] | minimal inhibitory concentration (MIC) [6] | minimal inhibitory concentration (MIC) [7] | minimal inhibitory concentration (MIC) [8] | minimal inhibitory concentration (MIC) [9] | minimal inhibitory concentration (MIC) [10] | minimal inhibitory concentration (MIC) [12] | mortality at 30 mg/kg (Pasteurella multocida) [%] | minimal inhibitory concentration (MIC) [13] | minimal inhibitory concentration (MIC) [14] | minimal inhibitory concentration (MIC) (Mycoplasma hyorhinis) | minimal inhibitory concentration (MIC) (Mycoplasma gallisepticum) | minimal inhibitory concentration (MIC) (Staphylococcus aureus) | minimal inhibitory concentration (MIC) [15] | minimal inhibitory concentration (MIC) [16] | minimal inhibitory concentration (MIC) (Streptococcus sp. 80) | minimal inhibitory concentration (MIC) [17] | other results
1 | CCC1OC(=O)CC(O)C(C)C(OC2OC(C)C(OC(C)=O)C(N(C)C)C2OC(C)=O)C(CC=O)CC(C)C(=O)C=CC(C)=CC1COC(=O)COc1ccccc1 (stereo not shown) [Compound 34, 2',4'-Di-O-acetyl-23-O-phenoxyacetyl-OMT] | 0.5 | 0.25 | 0.25 | 0.25 | 0.06 | 0.25 | 0.25 | 0.25 | 0.25 | 0.015 | 90 | 1.56 | 3.12 | 3.12 | < 0.05 | 0.097 | 3.12 | 3.12 | < 0.05 | 3.12 | minimal inhibitory concentration (MIC) [2]: 1; minimal inhibitory concentration (MIC) [11]: 1; minimal inhibitory concentration (MIC) [18]: 1.56; minimal inhibitory concentration (MIC) [19]: 1.56; minimal inhibitory concentration (MIC) [20]: 1.56
2 | CCC1OC(=O)CC(O)C(C)C(OC2OC(C)C(OC(C)=O)C(N(C)C)C2OC(C)=O)C(CC=O)CC(C)C(=O)C=CC(C)=CC1COC(=O)Cc1cccnc1 (stereo not shown) [Compound 43, 2',4'-Di-O-acetyl-23O-(3-pyridylacetyl)-OMT] | 0.5 | 0.5 | 0.25 | 0.5 | 0.06 | 0.25 | 0.25 | 0.25 | 0.25 | 0.06 | 80 | 3.12 | 3.12 | 0.78 | 0.78 | 0.39 | 6.25 | 3.12 | 0.195 | 6.25 | minimal inhibitory concentration (MIC) (Mycoplasma synoviae): < 0.05; minimal inhibitory concentration (MIC) [18]: 3.12; minimal inhibitory concentration (MIC) [19]: 3.12; minimal inhibitory concentration (MIC) [20]: 1.56
3 | CCC1OC(=O)CC(O)C(C)C(OC2OC(C)C(OC(C)=O)C(N(C)C)C2OC(C)=O)C(CC=O)CC(C)C(=O)C=CC(C)=CC1COS(=O)(=O)c1ccc(NC(C)=O)cc1 (stereo not shown) [Compound 47, 23-O-(p-Acetamidobenzenesulfonyl)-2',4'-di-O-acetyl-OMT] | 2 | 2 | 1 | 2 | 0.125 | 1 | 1 | 1 | 1 | 0.125 | 90 | 6.25 | 12.5 | 12.5 | 0.195 | 0.78 | 12.5 | 12.5 | < 0.05 | 12.5 | minimal inhibitory concentration (MIC) (Mycoplasma synoviae): 1.56; minimal inhibitory concentration (MIC) [18]: 3.12; minimal inhibitory concentration (MIC) [19]: 12.5; minimal inhibitory concentration (MIC) [20]: 3.12
